What was measured:
Assay type in all cases: in vivo
[1] = system: Plasmopara viticola; test: Test D: grape downy mildew control on grape seedlings; details: 250 ppm, 100 = 100% disease control, 0 = no control
[2] = system: Phakopsora pachyrhizi; test: Test A: Asian soybean rust control on soybean seedlings; details: soybean seedlings, 100 = 100% disease control, 0 = no control
[3] = system: Phytophthora infestans; test: whole plant or invertebrate; details: tomato seedlings, 100 = 100% disease control, 0 = no control; for Test F disease control rating: 250 ppm
[4] = system: Puccinia recondita f. sp. tritici; test: Test B: wheat leaf rust control on wheat seedlings; details: wheat seedlings, 100 = 100% disease control, 0 = no control
[5] = system: Botrytis cinerea; test: Test E: tomato Botrytis control on tomato seedlings; details: 250 ppm, 100 = 100% disease control, 0 = no control
[6] = system: Erysiphe graminis f. sp. tritici; test: Test G: wheat powdery mildew control on wheat seedlings; details: 250 ppm, 100 = 100% disease control, 0 = no control
[7] = system: Zymoseptoria tritici; test: Test C: wheat leaf blotch control on wheat seedlings; details: 250 ppm, wheat seedlings, 100 = 100% disease control, 0 = no control

Compound | Test A disease control rating ([2]; 250 ppm) | Test F disease control rating [3] | Test B disease control rating ([4]; 250 ppm) | Test E disease control rating [5] | Test G disease control rating [6] | Test C disease control rating [7] | further results
COc1ccnc(C(=O)NC(C)C(=O)OC(C)c2ccc(F)cc2Cc2ccc(F)cc2)c1O (mixture of isomers) [Compound 42] | 100% | 0% | 100% | 0% | 0% | – | Test D disease control rating [1]: 66%
CCOC(=O)c1cnn(-c2ccc(C(C)OC(=O)C(C)NC(=O)c3nccc(OC)c3O)cc2)c1 (mixture of isomers) [Compound 50] | – | – | 68% | – | – | 54% | –
COc1ccnc(C(=O)NC(C)C(=O)OC(C)c2ccccc2Oc2ccc(F)cc2)c1O (mixture of isomers) [Compound 55] | 100% | 0% | 98% | 0% | 13% | – | Test D disease control rating [1]: 52%
COc1ccnc(C(=O)NC(C)C(=O)OC(C)c2ccc(C3CCCC3)cc2)c1O (mixture of isomers) [Compound 65] | – | – | – | – | – | – | Test A disease control rating ([2]; 50 ppm): 100%; Test B disease control rating ([4]; 50 ppm): 98%
COc1ccnc(C(=O)NC(C)C(=O)OC(C)c2ccc(C3CC3)cc2)c1OC(C)=O (mixture of isomers) [Compound 71] | – | – | – | – | – | – | Test A disease control rating ([2]; 50 ppm): 89%
COc1ccnc(C(=O)NC(C)C(=O)OC(C)C23CC4CC(CC(C4)C2)C3)c1O (racemic) [Compound 44] | – | – | – | – | – | – | pest or weed control at 50 ppm ([2]; Phakopsora pachyrhizi, 50 ppm, read-out: Test A disease control rating): 75%; pest or weed control at 50 ppm ([4]; Puccinia recondita, 50 ppm, read-out: Test B disease control rating): 55%
COc1ccnc(C(=O)NC(C)C(=O)OC(C)c2ccc3ccccc3c2)c1O (racemic) [Compound 76] | – | – | – | – | – | – | pest or weed control at 250 ppm ([7]; Zymoseptoria tritici, read-out: Test C disease control rating): 99%; pest or weed control at 250 ppm ([2]; Phakopsora pachyrhizi, 250 ppm, read-out: Test A disease control rating): 100%; pest or weed control at 250 ppm ([3]; Phytophthora infestans, in Solanum lycopersicum, read-out: Test F disease control rating, 250 ppm): 0%; pest or weed control at 250 ppm ([4]; Puccinia recondita, 250 ppm, read-out: Test B disease control rating): 100%; pest or weed control at 250 ppm ([5]; Botrytis cinerea, read-out: Test E disease control rating): 0%
COc1ccnc(C(=O)N[C@@H](C)C(=O)OC(C)c2ccc(F)cc2Cc2ccc(F)cc2)c1O (single isomer, unassigned) [Compound 41] | 100% | 24% | 100% | 0% | 0% | – | Test D disease control rating [1]: 70%
COc1ccnc(C(=O)N[C@@H](C)C(=O)OC(C)C2CCCCC2)c1O (single isomer, unassigned) [Compound 51] | – | – | – | – | – | – | Test A disease control rating ([2]; 50 ppm): 100%; Test B disease control rating ([4]; 50 ppm): 100%
COc1ccnc(C(=O)N[C@@H](C)C(=O)OC(C)C2CCCCC2)c1O (single isomer, unassigned) [Compound 52] | – | – | – | – | – | – | Test A disease control rating ([2]; 50 ppm): 32%; Test B disease control rating ([4]; 50 ppm): 9%
COc1ccnc(C(=O)N[C@@H](C)C(=O)OC(C)c2ccc(F)cc2Cc2ccc(F)cc2)c1O (single isomer, unassigned) [Compound 54] | 79% | 0% | 68% | 0% | 0% | – | Test D disease control rating [1]: 55%
COc1ccnc(C(=O)N[C@@H](C)C(=O)OC(C)c2ccccc2Oc2ccc(F)cc2)c1O (single isomer, unassigned) [Compound 59] | 100% | 0% | 100% | 0% | 13% | – | Test D disease control rating [1]: 66%
COc1ccnc(C(=O)N[C@@H](C)C(=O)OC(C)c2ccc(C3CCCCC3)cc2)c1O (single isomer, unassigned) [Compound 73] | – | – | – | – | – | – | Test A disease control rating ([2]; 50 ppm): 0%; Test B disease control rating ([4]; 50 ppm): 41%
COc1ccnc(C(=O)N[C@@H](C)C(=O)OC(C)c2ccc(C3CCCCC3)cc2)c1O (single isomer, unassigned) [Compound 74] | – | – | – | – | – | – | Test A disease control rating ([2]; 50 ppm): 100%; Test B disease control rating ([4]; 50 ppm): 99%
COc1ccnc(C(=O)N[C@@H](C)C(=O)OC(C)c2ccccc2Oc2ccccc2)c1O (single isomer, unassigned) [Compound 105] | 98% | 0% | 28% | 0% | 0% | 67% | –
COc1ccnc(C(=O)N[C@@H](C)C(=O)OC(C)c2ccccc2Oc2ccccc2)c1O (single isomer, unassigned) [Compound 106] | 100% | 0% | 92% | 16% | 0% | 90% | –
COc1ccnc(C(=O)N[C@@H](C)C(=O)OC(C)c2ccccc2Oc2ccccc2)c1OC(C)=O (single isomer, unassigned) [Compound 107] | 100% | 0% | 98% | 0% | 0% | 87% | –
COc1ccnc(C(=O)N[C@@H](C)C(=O)OC(C)c2ccccc2Oc2ccccc2)c1OC(C)=O (single isomer, unassigned) [Compound 108] | 43% | 0% | 32% | 0% | 0% | 75% | –
COc1ccnc(C(=O)N[C@@H](C)C(=O)OC(C)c2ccccc2Cc2ccccc2)c1O (single isomer, unassigned) [Compound 109] | 100% | 0% | 98% | 98% | 0% | 85% | –
COc1ccnc(C(=O)N[C@@H](C)C(=O)OC(C)c2ccccc2Cc2ccccc2)c1OC(C)=O (single isomer, unassigned) [Compound 110] | 100% | 0% | 99% | 0% | 0% | 92% | –
COc1ccnc(C(=O)N[C@@H](C)C(=O)OC(C)c2ccccc2Cc2ccccc2)c1O (single isomer, unassigned) [Compound 111] | 97% | 0% | 9% | 16% | 0% | 56% | –
COc1ccnc(C(=O)N[C@@H](C)C(=O)OC(C)c2ccccc2Cc2ccccc2)c1OC(C)=O (single isomer, unassigned) [Compound 112] | 0% | 0% | 55% | 0% | 0% | 83% | –
COc1ccnc(C(=O)N[C@@H](C)C(=O)OC(C)c2cccc3ccccc23)c1OC(C)=O (single isomer, unassigned) [Compound 115] | 89% | 0% | 55% | 0% | 0% | 86% | –
COc1ccnc(C(=O)N[C@@H](C)C(=O)OC(c2ccc(C3CCCCC3)cc2)C(C)C)c1OC(C)=O (stereo partly shown) [Compound 96] | – | – | – | – | – | – | Test A disease control rating ([2]; 50 ppm): 94%; Test B disease control rating ([4]; 50 ppm): 95%

— US20230131966A1, “FUNGICIDAL AMIDES” (FMC Corporation, priority 2020, published 2023)
